Laboratory results from US12077503B2, “Substituted cyclic amides and their use as herbicides” (FMC CORPORATION, priority 2015, dated 2024).

Assays:
Format in all cases: in vivo
[1] = system: barnyardgrass (Echinochloa crus-galli); experiment: Test G Pre-Emergence Protocol; details: Echinochloa crus-galli, pre-emergence, 312 h, evaluated after 13 days; for pest or weed control at 15.625 g/ha: 15.625 g ai/ha, read-out: Barnyard grass damage rating (100=total damage to plant; 0=no damage to plant); for pest or weed control at 62.5 g/ha: 62.5 g ai/ha, 100=total damage to plant, 0=no damage to plant, read-out: plant damage rating, Barnyardgrass; for pest or weed control at 250 g/ha: 250 g ai/ha, read-out: Barnyardgrass damage rating (100=total damage to plant; 0=no damage to plant)
Outline: (§1)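 Seeds were sown in standard soil and kept one day in a glasshouse (24/16° C day/night, 14 h light, 65% humidity), then sprayed with compound in acetone/water (50:50) containing 0.5% Tween 20 at 15.625, 62.5 or 250 g/ha. Damage was scored after 13 days (0 = none, 100 = total).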

[2] = system: corn (Zea mays); experiment: Test G Pre-Emergence Protocol; details: Zea mays, pre-emergence, 312 h, evaluated after 13 days; for plant injury at 15.625 g/ha: 15.625 g ai/ha; for plant injury at 15.625 g/ha / plant injury at 250 g/ha: read-out: Corn damage rating (100=total damage to plant; 0=no damage to plant); for plant injury at 62.5 g/ha: 62.5 g ai/ha, 100=total damage to plant, 0=no damage to plant, read-out: plant damage rating, Corn; for plant injury at 250 g/ha: 250 g ai/ha
Outline: as §1

[3] = system: giant foxtail (Setaria faberi); experiment: Test G Pre-Emergence Protocol; details: Setaria faberi, pre-emergence, 312 h, evaluated after 13 days; for pest or weed control at 15.625 g/ha: 15.625 g ai/ha; for pest or weed control at 15.625 g/ha / pest or weed control at 250 g/ha: read-out: Foxtail, Giant damage rating (100=total damage to plant; 0=no damage to plant); for pest or weed control at 62.5 g/ha: 62.5 g ai/ha, 100=total damage to plant, 0=no damage to plant, read-out: plant damage rating, Foxtail, Giant; for pest or weed control at 250 g/ha: 250 g ai/ha
Outline: as §1

[4] = system: ivy-leaved morning glory (Ipomoea hederacea); experiment: Test G Pre-Emergence Protocol; details: Ipomoea, pre-emergence, 312 h, evaluated after 13 days; for pest or weed control at 15.625 g/ha: 15.625 g ai/ha, read-out: Morning-glory, Ivy-leaved damage rating (100=total damage to plant; 0=no damage to plant); for pest or weed control at 62.5 g/ha: 62.5 g ai/ha, 100=total damage to plant, 0=no damage to plant, read-out: plant damage rating, Morningglory, Ivy-leaved; for pest or weed control at 250 g/ha: 250 g ai/ha, read-out: Morningglory, Ivy-leaved damage rating (100=total damage to plant; 0=no damage to plant)
Outline: as §1

[5] = system: redroot pigweed (Amaranthus retroflexus); experiment: Test G Pre-Emergence Protocol; details: Amaranthus retroflexus, pre-emergence, 312 h, evaluated after 13 days; for pest or weed control at 15.625 g/ha: 15.625 g ai/ha; for pest or weed control at 15.625 g/ha / pest or weed control at 250 g/ha: read-out: Pigweed, Redroot damage rating (100=total damage to plant; 0=no damage to plant); for pest or weed control at 62.5 g/ha: 62.5 g ai/ha, 100=total damage to plant, 0=no damage to plant, read-out: plant damage rating, Pigweed, Redroot; for pest or weed control at 250 g/ha: 250 g ai/ha
Outline: as §1

[6] = system: velvetleaf (Abutilon theophrasti); experiment: Test G Pre-Emergence Protocol; details: Abutilon theophrasti, pre-emergence, 312 h, evaluated after 13 days; for pest or weed control at 15.625 g/ha: 15.625 g ai/ha; for pest or weed control at 15.625 g/ha / pest or weed control at 250 g/ha: read-out: Velvetleaf damage rating (100=total damage to plant; 0=no damage to plant); for pest or weed control at 62.5 g/ha: 62.5 g ai/ha, 100=total damage to plant, 0=no damage to plant, read-out: plant damage rating, Velvetleaf; for pest or weed control at 250 g/ha: 250 g ai/ha
Outline: as §1

[7] = system: barnyardgrass (Echinochloa crus-galli); experiment: Test G Post-Emergence Protocol; details: Echinochloa crus-galli, post-emergence, 312 h; for pest or weed control at 15.625 g/ha: 15.625 g ai/ha, evaluated after 13 days (100=total damage to plant; 0=no damage to plant), read-out: Barnyardgrass damage rating; for pest or weed control at 62.5 g/ha: 62.5 g ai/ha, read-out: Barnyardgrass damage rating (100=total damage to plant; 0=no damage to plant); for pest or weed control at 62.5 g/ha / pest or weed control at 250 g/ha: evaluated after 13 days; for pest or weed control at 250 g/ha: 250 g ai/ha, read-out: damage to plant, Barnyardgrass (100=total damage to plant; 0=no damage to plant)
Outline: (§2)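 A glasshouse post-emergence test: 8-day-old plants sprayed at 15.625, 62.5 or 250 g/ha, then grown at 24/16 °C day/night with 14 h light and 65% humidity. Damage rated 13 days later, 0–100.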

[8] = system: corn (Zea mays); experiment: Test G Post-Emergence Protocol; details: Zea mays, post-emergence, 312 h; for plant injury at 15.625 g/ha: 15.625 g ai/ha, evaluated after 13 days (100=total damage to plant; 0=no damage to plant), read-out: Corn damage rating; for plant injury at 62.5 g/ha: 62.5 g ai/ha, read-out: Corn damage rating (100=total damage to plant; 0=no damage to plant); for plant injury at 62.5 g/ha / plant injury at 250 g/ha: evaluated after 13 days; for plant injury at 250 g/ha: 250 g ai/ha, read-out: damage to plant, Corn (100=total damage to plant; 0=no damage to plant)
Outline: as §2

[9] = system: giant foxtail (Setaria faberi); experiment: Test G Post-Emergence Protocol; details: Setaria faberi, post-emergence, 312 h; for pest or weed control at 15.625 g/ha: 15.625 g ai/ha, evaluated after 13 days (100=total damage to plant; 0=no damage to plant), read-out: Foxtail, Giant damage rating; for pest or weed control at 62.5 g/ha: 62.5 g ai/ha, read-out: Foxtail, Giant damage rating (100=total damage to plant; 0=no damage to plant); for pest or weed control at 62.5 g/ha / pest or weed control at 250 g/ha: evaluated after 13 days; for pest or weed control at 250 g/ha: 250 g ai/ha, read-out: damage to plant, Foxtail, Giant (100=total damage to plant; 0=no damage to plant)
Outline: as §2

[10] = system: ivy-leaved morning glory (Ipomoea hederacea); experiment: Test G Post-Emergence Protocol; details: Ipomoea, post-emergence, 312 h; for pest or weed control at 15.625 g/ha: 15.625 g ai/ha, evaluated after 13 days (100=total damage to plant; 0=no damage to plant), read-out: Morningglory, Ivy-leaved damage rating; for pest or weed control at 62.5 g/ha: 62.5 g ai/ha, read-out: Morningglory, Ivy-leaved damage rating (100=total damage to plant; 0=no damage to plant); for pest or weed control at 62.5 g/ha / pest or weed control at 250 g/ha: evaluated after 13 days; for pest or weed control at 250 g/ha: 250 g ai/ha, read-out: damage to plant, Morningglory, Ivy-leaved (100=total damage to plant; 0=no damage to plant)
Outline: as §2

[11] = system: redroot pigweed (Amaranthus retroflexus); experiment: Test G Post-Emergence Protocol; details: Amaranthus retroflexus, post-emergence, 312 h; for pest or weed control at 15.625 g/ha: 15.625 g ai/ha, evaluated after 13 days (100=total damage to plant; 0=no damage to plant), read-out: Pigweed, Redroot damage rating; for pest or weed control at 62.5 g/ha: 62.5 g ai/ha, read-out: Pigweed, Redroot damage rating (100=total damage to plant; 0=no damage to plant); for pest or weed control at 62.5 g/ha / pest or weed control at 250 g/ha: evaluated after 13 days; for pest or weed control at 250 g/ha: 250 g ai/ha, read-out: damage to plant, Pigweed, Redroot (100=total damage to plant; 0=no damage to plant)
Outline: as §2

[12] = system: velvetleaf (Abutilon theophrasti); experiment: Test G Post-Emergence Protocol; details: Abutilon theophrasti, post-emergence, 312 h; for pest or weed control at 15.625 g/ha: 15.625 g ai/ha, evaluated after 13 days (100=total damage to plant; 0=no damage to plant), read-out: Velvetleaf damage rating; for pest or weed control at 62.5 g/ha: 62.5 g ai/ha, read-out: Velvetleaf damage rating (100=total damage to plant; 0=no damage to plant); for pest or weed control at 62.5 g/ha / pest or weed control at 250 g/ha: evaluated after 13 days; for pest or weed control at 250 g/ha: 250 g ai/ha, read-out: damage to plant, Velvetleaf (100=total damage to plant; 0=no damage to plant)
Outline: as §2

`CN1C[C@H](c2ccc(C(F)(F)F)cc2)[C@@H](C(=O)Nc2cnccc2O)C1=O` (racemic) [Compound 1466] was tested, and the pest or weed control at 15.625 g/ha [1] was 0%, the pest or weed control at 62.5 g/ha [1] was 0% and the pest or weed control at 250 g/ha [1] was 0%. For the same compound, the plant injury at 15.625 g/ha [2] was 0%, the plant injury at 62.5 g/ha [2] was 0% and the plant injury at 250 g/ha [2] was 0%. The pest or weed control at 15.625 g/ha [3] was 0%, the pest or weed control at 62.5 g/ha [3] was 0% and the pest or weed control at 250 g/ha [3] was 0%. The pest or weed control at 15.625 g/ha [4] was 0%, the pest or weed control at 62.5 g/ha [4] was 0% and the pest or weed control at 250 g/ha [4] was 0%. It also gave a pest or weed control at 15.625 g/ha [5] of 0%, a pest or weed control at 62.5 g/ha [5] of 0% and a pest or weed control at 250 g/ha [5] of 0%. The pest or weed control at 15.625 g/ha [6] was 0%, the pest or weed control at 62.5 g/ha [6] was 0% and the pest or weed control at 250 g/ha [6] was 0%. It also gave a pest or weed control at 15.625 g/ha [7] of 0%, a pest or weed control at 62.5 g/ha [7] of 0% and a pest or weed control at 250 g/ha [7] of 20%. The plant injury at 15.625 g/ha [8] was 0%, the plant injury at 62.5 g/ha [8] was 10% and the plant injury at 250 g/ha [8] was 20%. It also gave a pest or weed control at 15.625 g/ha [9] of 0%, a pest or weed control at 62.5 g/ha [9] of 10% and a pest or weed control at 250 g/ha [9] of 30%. The pest or weed control at 15.625 g/ha [10] was 0%, the pest or weed control at 62.5 g/ha [10] was 10% and the pest or weed control at 250 g/ha [10] was 10%. It also gave a pest or weed control at 15.625 g/ha [11] of 10%, a pest or weed control at 62.5 g/ha [11] of 30% and a pest or weed control at 250 g/ha [11] of 80%. It also gave a pest or weed control at 15.625 g/ha [12] of 0%, a pest or weed control at 62.5 g/ha [12] of 0% and a pest or weed control at 250 g/ha [12] of 0%.

`CN1C[C@H](c2ccc(F)c(C#N)c2)[C@@H](C(=O)Nc2ccccc2F)C1=O` (racemic) [Compound 1468] gave a pest or weed control at 15.625 g/ha [1] of 10%, a pest or weed control at 62.5 g/ha [1] of 70% and a pest or weed control at 250 g/ha [1] of 80%. It also gave a plant injury at 15.625 g/ha [2] of 0%, a plant injury at 62.5 g/ha [2] of 0% and a plant injury at 250 g/ha [2] of 0%. For the same compound, the pest or weed control at 15.625 g/ha [3] was 80%, the pest or weed control at 62.5 g/ha [3] was 80% and the pest or weed control at 250 g/ha [3] was 90%. The pest or weed control at 15.625 g/ha [4] was 0%, the pest or weed control at 62.5 g/ha [4] was 0% and the pest or weed control at 250 g/ha [4] was 0%. For the same compound, the pest or weed control at 15.625 g/ha [5] was 0%, the pest or weed control at 62.5 g/ha [5] was 0% and the pest or weed control at 250 g/ha [5] was 0%. It also gave a pest or weed control at 15.625 g/ha [6] of 0%, a pest or weed control at 62.5 g/ha [6] of 0% and a pest or weed control at 250 g/ha [6] of 0%. The pest or weed control at 15.625 g/ha [7] was 10%, the pest or weed control at 62.5 g/ha [7] was 50% and the pest or weed control at 250 g/ha [7] was 40%. For the same compound, the plant injury at 15.625 g/ha [8] was 10%, the plant injury at 62.5 g/ha [8] was 10% and the plant injury at 250 g/ha [8] was 10%. It also gave a pest or weed control at 15.625 g/ha [9] of 30%, a pest or weed control at 62.5 g/ha [9] of 70% and a pest or weed control at 250 g/ha [9] of 70%. It also gave a pest or weed control at 15.625 g/ha [10] of 10%, a pest or weed control at 62.5 g/ha [10] of 0% and a pest or weed control at 250 g/ha [10] of 10%. The pest or weed control at 15.625 g/ha [11] was 10%, the pest or weed control at 62.5 g/ha [11] was 0% and the pest or weed control at 250 g/ha [11] was 30%. The pest or weed control at 15.625 g/ha [12] was 0%, the pest or weed control at 62.5 g/ha [12] was 0% and the pest or weed control at 250 g/ha [12] was 10%.
